Results: ChEMBL document CHEMBL5356995, “Aurones and derivatives as promising New Delhi metallo-β-lactamase (NDM-1) inhibitors” (Bioorg Med Chem, 2024)

How the values were obtained:
[1] = target: Metallo-beta-lactamase type 2 (Bacteria) (UniProt C7C422); assay: Inhibition of bacterial NDM-1 assessed as substrate hydrolysis at 50 uM using imipenem as substrate by spectrophotometric analysis relative to control
Bacteria [2] = assay: Inhibition of bacterial VIM-2 assessed as substrate hydrolysis at 50 uM using imipenem as substrate by spectrophotometric analysis relative to control
Bacteria [3] = assay: Inhibition of bacterial IMP-1 assessed as substrate hydrolysis at 50 uM using imipenem as substrate by spectrophotometric analysis relative to control
[4] = target: Metallo-beta-lactamase type 2 (Bacteria, UniProt C7C422); assay: Competitive inhibition of NDM-1 using imipenem as substrate by spectrophotometric analysis
Sequence of Metallo-beta-lactamase type 2 (C7C422 whole entry): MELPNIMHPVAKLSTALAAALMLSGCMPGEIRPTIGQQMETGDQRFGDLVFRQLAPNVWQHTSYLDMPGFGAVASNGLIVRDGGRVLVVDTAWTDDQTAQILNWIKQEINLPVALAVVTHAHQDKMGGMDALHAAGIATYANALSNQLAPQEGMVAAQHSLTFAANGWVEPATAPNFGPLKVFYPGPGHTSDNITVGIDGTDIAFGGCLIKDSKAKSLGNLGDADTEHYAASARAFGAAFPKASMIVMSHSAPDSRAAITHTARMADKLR

Escherichia coli [5] = assay: Potentiation of meropenem induced antibacterial activity against blaNDM-1 producing Escherichia coli SI-004M assessed as reduction in meropenem MIC at 32 ug/ml (reference value: 64 ug/ml); assay type: functional; conditions: dose 32 µg/ml
Klebsiella pneumoniae = assay: Potentiation of meropenem induced antibacterial activity against blaNDM-1 producing Klebsiella pneumoniae SI-518 assessed as reduction in meropenem MIC at 32 ug/ml (reference value: 128 ug/ml); assay type: functional; conditions: dose 32 µg/ml
Escherichia coli [6] = assay: Potentiation of meropenem induced antibacterial activity against blaNDM-4 producing Escherichia coli SI-G001 assessed as reduction in meropenem MIC at 32 ug/ml (reference value: 128 ug/ml); assay type: functional; conditions: dose 32 µg/ml

Sequence of Metallo-beta-lactamase type 2 (Bacteria) (C7C422 whole entry): as above

SMILES | inhibition [1] | inhibition (Bacteria [2]) | inhibition (Bacteria [3]) | Ki [4] | MIC (Escherichia coli [5]) | MIC (Klebsiella pneumoniae) | MIC (Escherichia coli [6])
CCCCOc1ccc(/C=C2\Oc3cc(O)cc(O)c3C2=O)cc1 | 41% | < 10% | 25% | – | – | – | –
O=C1/C(=C/c2ccc(O)cc2O)Oc2cc(O)cc(O)c21 | < 10% | < 10% | 14% | – | – | – | –
COc1ccc(/C=C2\Oc3c(ccc(O)c3O)C2=O)c(O)c1 | 84.5% | < 10% | 49% | 1.7 µM | 32 µg/mL | 32 µg/mL | 128 µg/mL
Cc1ccc(O)c(/C=C2\Oc3cc(O)cc(O)c3C2=O)c1 | < 10% | < 10% | 12% | – | – | – | –
NCCN[C@H]1CC[C@@H](CC(=O)N[C@H]2Cc3cccc(C(=O)O)c3OB2O)CC1 | > 98% | > 98% | 41% | – | – | – | –
COc1cc(/C=C2\Oc3ccccc3C2=O)ccc1O | < 10% | < 10% | < 10% | – | – | – | –
CC(C)CCn1cc(/C=C2\Oc3cc(O)cc(O)c3C2=O)c2ccccc21 | 18% | < 10% | 47.1% | – | – | – | –
COc1ccc(/C=C2\Oc3cc(O)cc(O)c3C2=O)c(OC)c1 | 52% | < 10% | 43.6% | – | – | – | –
CCCCn1cc(/C=C2\Oc3cc(O)cc(O)c3C2=O)c2cc(O)ccc21 | < 10% | < 10% | 30% | – | – | – | –
COc1ccc(/C=C2\Oc3cc(O)ccc3C2=O)c(OC)c1 | 17% | < 10% | 17.9% | – | – | – | –
O=C1/C(=C/c2cn(Cc3ccc(Br)cc3)c3ccccc23)Oc2cc(O)cc(O)c21 | 44% | < 10% | 22% | – | – | – | –
O=C1/C(=C/c2ccc(O)cc2O)Oc2c(O)cccc21 | < 10% | < 10% | < 10% | – | – | – | –
O=C1/C(=C/c2ccc(O)cc2O)Oc2c1ccc(O)c2I | < 10% | 13% | 15% | – | – | – | –
Cc1cccc(Cn2cc(/C=C3\Oc4cc(O)cc(O)c4C3=O)c3ccccc32)c1 | 54% | 11% | 43% | – | – | – | –
O=C1/C(=C/c2ccc(Cl)cc2)Oc2c(O)cccc21 | < 10% | < 10% | < 10% | – | – | – | –
COc1ccc(/C=C2\Oc3ccccc3C2=O)c(OC)c1OC | < 10% | < 10% | < 10% | – | – | – | –
CN(C)c1ccc(/C=C2\Oc3cc(O)cc(O)c3C2=O)c(O)c1 | 55% | < 10% | 27% | – | – | – | –
CCCCc1ccc(/C=C2\Oc3c(ccc(O)c3O)C2=O)cc1 | < 10% | < 10% | < 10% | – | – | – | –
O=C1/C(=C/c2cn(CC3CCCCC3)c3ccccc23)Oc2cc(O)cc(O)c21 | 72% | < 10% | 44% | 2.5 µM | 64 µg/mL | 16 µg/mL | 64 µg/mL
CN1CCN(c2ccc(/C=C3\Oc4cc(O)ccc4C3=O)cc2)CC1 | < 10% | < 10% | 19% | – | – | – | –
CN1CCN(c2ccc(/C=C3\Oc4cccc(O)c4C3=O)cc2)CC1 | < 10% | < 10% | 12% | – | – | – | –

SMILES | inhibition [1] | inhibition (Bacteria [2]) | inhibition (Bacteria [3]) | Ki [4] | MIC (Escherichia coli [5]) | MIC (Klebsiella pneumoniae) | MIC (Escherichia coli [6])
O=C1/C(=C/c2cn(Cc3cccc(Br)c3)c3ccccc23)Oc2cc(O)cc(O)c21 | 69% | < 10% | 43% | 5.5 µM | 32 µg/mL | 32 µg/mL | 64 µg/mL
COc1cc(OC)c2c(c1)O/C(=C\c1ccc(-c3cccs3)cc1)C2=O | 39% | < 10% | 24% | – | – | – | –
O=C1/C(=C/c2cn(Cc3ccccc3Br)c3ccccc23)Oc2cc(O)cc(O)c21 | < 10% | < 10% | 23% | – | – | – | –
Cn1cc(/C=C2\Oc3cc(O)cc(O)c3C2=O)c2ccccc21 | 46% | < 10% | 28% | – | – | – | –
O=C1/C(=C/c2ccc(O)cc2O)Oc2cc(O)ccc21 | < 10% | < 10% | < 10% | – | – | – | –
CCc1ccc(/C=C2\Oc3cc(O)cc(O)c3C2=O)cc1 | 55% | < 10% | 24.9% | – | – | – | –
CC(C)(C)CCn1cc(/C=C2\Oc3cc(O)cc(O)c3C2=O)c2ccccc21 | 11.2% | < 10% | 28% | – | – | – | –
O=C1/C(=C/c2ccc(F)cc2)Oc2c(O)cccc21 | < 10% | < 10% | < 10% | – | – | – | –
COc1cc(OC)c2c(c1)O/C(=C\c1ccc(F)cc1F)C2=O | 35% | < 10% | 32% | – | – | – | –
COc1ccc(/C=C2\Oc3cc(O)cc(O)c3C2=O)c(OC)c1OC | 14% | < 10% | 20% | – | – | – | –
Cn1cc(/C=C2\Oc3cccc(O)c3C2=O)c2cc(Br)ccc21 | < 10% | < 10% | 21.4% | – | – | – | –
Cn1cc(/C=C2\Oc3cc(O)ccc3C2=O)c2cc(Br)ccc21 | 18% | < 10% | 39% | – | – | – | –
O=C1/C(=C/c2ccc(C(F)(F)F)cc2)Oc2c1ccc(O)c2O | < 10% | < 10% | 17% | – | – | – | –
C=CCn1cc(/C=C2\Oc3cc(O)cc(O)c3C2=O)c2ccccc21 | < 10% | < 10% | 16% | – | – | – | –
COc1cc(/C=C2\Oc3cc(O)ccc3C2=O)ccc1O | < 10% | 14% | 13% | – | – | – | –
COc1ccc(/C=C2\Oc3c(ccc(O)c3O)C2=O)c(OC)c1 | 30% | 10.3% | 28% | – | – | – | –
CCCCOc1ccc(/C=C2\Oc3cc(O)cc(O)c3C2=O)c(O)c1 | 46% | – | – | – | – | – | –
O=C1/C(=C/c2ccc(N3CCCCC3)cc2)Oc2cc(O)cc(O)c21 | 74% | 17% | 20% | 4.8 µM | 64 µg/mL | 64 µg/mL | 128 µg/mL
O=C1/C(=C/c2ccc(O)cc2O)Oc2ccccc21 | < 10% | < 10% | < 10% | – | – | – | –
O=C(O)c1ccc(/C=C2\Oc3c(O)cccc3C2=O)cc1 | 24% | < 10% | < 10% | – | – | – | –
O=C1/C(=C/c2c(O)cc(O)cc2O)Oc2c(O)cccc21 | < 10% | < 10% | < 10% | – | – | – | –

SMILES | inhibition [1] | inhibition (Bacteria [2]) | inhibition (Bacteria [3]) | Ki [4] | MIC (Escherichia coli [5]) | MIC (Klebsiella pneumoniae) | MIC (Escherichia coli [6])
COc1ccc(/C=C2\Oc3cc(O)cc(O)c3C2=O)cc1OC | 23% | < 10% | 21% | – | – | – | –
O=C1/C(=C/c2ccc(O)cc2O)Oc2c1ccc(O)c2O | 20% | < 10% | 24% | – | – | – | –
O=C1/C(=C/c2cn(CCCc3ccccc3)c3ccccc23)Oc2cc(O)cc(O)c21 | 68.7% | < 10% | 41% | 17 µM | 32 µg/mL | 32 µg/mL | 64 µg/mL
O=C1/C(=C/c2ccccc2O)Oc2cc(O)cc(O)c21 | < 10% | < 10% | 14% | – | – | – | –
O=C1/C(=C/c2ccccc2O)Oc2cc(O)ccc21 | < 10% | < 10% | < 10% | – | – | – | –
CC[C@H](C)Cn1cc(/C=C2\Oc3cc(O)cc(O)c3C2=O)c2ccccc21 | 49% | < 10% | 46% | – | – | – | –
COc1cc(O)ccc1/C=C1\Oc2cc(O)ccc2C1=O | < 10% | < 10% | 13% | – | – | – | –
O=C1/C(=C/c2cn(Cc3cccc(O)c3)c3ccccc23)Oc2cc(O)cc(O)c21 | 78% | < 10% | 31% | 16 µM | 64 µg/mL | 64 µg/mL | 128 µg/mL
O=C1/C(=C/c2ccc(Cl)cc2)Oc2cc(O)cc(O)c21 | 11% | < 10% | 14% | – | – | – | –
COc1ccc(/C=C2\Oc3cc(O)cc(O)c3C2=O)cc1 | 38% | < 10% | 20% | – | – | – | –
COc1ccc(/C=C2\Oc3c(O)cccc3C2=O)cc1 | 20% | < 10% | < 10% | – | – | – | –
COc1cc(OC)c2c(c1)O/C(=C\c1ccc(OC)c(OC)c1OC)C2=O | < 10% | < 10% | 17% | – | – | – | –
COc1cc(O)ccc1/C=C1\Oc2ccccc2C1=O | < 10% | < 10% | < 10% | – | – | – | –
COc1ccc(/C=C2\Oc3cc(OC)cc(OC)c3C2=O)c(OC)c1 | < 10% | < 10% | < 10% | – | – | – | –
O=C1/C(=C/c2ccc(O)cc2)Oc2cc(O)cc(O)c21 | < 10% | < 10% | 12.4% | – | – | – | –
O=C1/C(=C/c2ccc3ccccc3c2)Oc2c1ccc(O)c2O | 50% | < 10% | 19% | – | – | – | –
O=C1/C(=C/c2ccc(C3CCCCC3)cc2)Oc2cc(O)cc(O)c21 | 16% | < 10% | < 10% | – | – | – | –
O=C1/C(=C/c2ccc(-n3ccnc3)cc2)Oc2cc(O)cc(O)c21 | 51% | < 10% | 23% | – | – | – | –
O=C1/C(=C/c2ccc(O)c(O)c2)Oc2cccc(O)c21 | 12% | < 10% | < 10% | – | – | – | –
O=C1/C(=C/c2c(O)cc(O)cc2O)Oc2cc(O)ccc21 | < 10% | < 10% | < 10% | – | – | – | –
